target: T1, human TRPM8 (Homo sapiens, UniProt Q7Z2W7); assay: Menthol-induced Ca2+ influx in HEK293 cells stably expressing human TRPM8; assay type: cell-based; conditions: 30 microM menthol, read-out: IC50 against TRPM8
T1 construct: expressed in transfected cells
Method: Measurement of the Menthol-Induced Ca^2+ Influx in HEK293 Cells Stably Expressing Human TRPM8
A cell-based Ca^2+ influx assay using HEK293 cells stably expressing human TRPM8 is used to identify the activity of compounds.
HEK293 cells stably expressing human TRPM8 are grown in T175 flasks at 37° C. in a 5% CO2 humidified incubator to about 80% confluence. Media composition consists of Dulbecco's Modified Eagle Medium (high glucose), 10% fetal calf serum (FCS), 100 units/mL Penicillin, 100 microg/mL Streptomycin and 600 microg/mL Geneticine. At 24 hours prior to assay, cells are seeded in poly-D-lysine coated 384-well plates (BD FALCON) at a density of 30,000 cells per well in culture medium and grown overnight in 5% CO2 at 37° C. On the assay day, growth media is removed and cells are loaded with 0.5 microM Fluo4-AM (Molecular Probes) and 0.005% Pluronic F-127 dissolved in assay buffer (Hank's balanced salt solution (HBSS), 19.4 mM HEPES pH 7.4, 2.5 mM Probenecid) for 1 hour at room temperature. After washing with assay buffer, the cells are preincubated with various concentrations of the compounds for 5 min. The changes in intracellular calcium concentration by addition of 30 microM menthol are monitored by the cell imaging technology by Hamamatsu Photonics Functional Drug Screening System (FDSS).
The IC50 values for compounds of the present invention are determined from 11-point dose-response studies. Curves are generated using the average of duplicate wells for each data point. Finally, the IC50 values are calculated with the best-fit dose curve determined by XLfit (ID Business Solutions Ltd.).

T1 sequence (Q7Z2W7 whole entry): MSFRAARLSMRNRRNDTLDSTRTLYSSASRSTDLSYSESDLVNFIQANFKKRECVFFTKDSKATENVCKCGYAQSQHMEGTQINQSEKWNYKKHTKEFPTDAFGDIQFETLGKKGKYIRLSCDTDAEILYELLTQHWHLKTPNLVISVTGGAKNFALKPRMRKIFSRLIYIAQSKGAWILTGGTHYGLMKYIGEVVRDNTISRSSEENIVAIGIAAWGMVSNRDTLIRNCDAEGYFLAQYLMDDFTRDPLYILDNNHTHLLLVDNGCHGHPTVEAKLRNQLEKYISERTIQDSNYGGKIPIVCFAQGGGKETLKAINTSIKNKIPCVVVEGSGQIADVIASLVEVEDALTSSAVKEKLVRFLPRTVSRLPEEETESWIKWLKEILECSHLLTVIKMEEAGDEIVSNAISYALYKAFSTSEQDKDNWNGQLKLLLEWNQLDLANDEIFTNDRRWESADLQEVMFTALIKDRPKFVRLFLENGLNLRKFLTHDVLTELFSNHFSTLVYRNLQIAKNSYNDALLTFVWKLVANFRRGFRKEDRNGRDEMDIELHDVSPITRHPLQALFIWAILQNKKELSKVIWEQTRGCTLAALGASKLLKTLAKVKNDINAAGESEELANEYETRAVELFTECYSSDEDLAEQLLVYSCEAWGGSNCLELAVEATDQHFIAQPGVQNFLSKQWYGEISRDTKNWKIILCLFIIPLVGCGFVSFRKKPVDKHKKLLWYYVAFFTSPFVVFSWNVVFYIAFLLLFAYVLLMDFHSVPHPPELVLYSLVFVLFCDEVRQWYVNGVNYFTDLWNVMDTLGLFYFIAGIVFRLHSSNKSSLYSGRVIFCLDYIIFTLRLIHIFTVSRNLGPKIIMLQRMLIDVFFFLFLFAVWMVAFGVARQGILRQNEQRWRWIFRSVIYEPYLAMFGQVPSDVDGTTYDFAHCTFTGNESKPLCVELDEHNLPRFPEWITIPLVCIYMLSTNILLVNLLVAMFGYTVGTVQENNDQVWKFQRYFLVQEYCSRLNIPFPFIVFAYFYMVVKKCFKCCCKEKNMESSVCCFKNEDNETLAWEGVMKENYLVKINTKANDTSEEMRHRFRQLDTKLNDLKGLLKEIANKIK

IC50, < 100 nM:
CC1=NC2(CCC(F)(F)CC2)C(=O)N1CC(=O)c1ccc(-c2nnccc2C)cc1 [Example 4, 8,8-difluoro-2-methyl-3-(2-(4-(4-methylpyridazin-3-yl)phenyl)-2-oxoethyl)-1,3-diazaspiro[4,5]dec-1-en-4-one]

IC50, < 50 nM:
CC1=NC2(CCC(F)(F)CC2)C(=O)N1CC(=O)c1ccc(Oc2cccnn2)cc1 [Example 1]
CC1=NC2(CCCCC2)C(=O)N1CC(=O)c1ccc(-n2c(C)nc3ccccc32)cc1 [Example 2, 2-methyl-3-(2-(4-(2-methyl-1H-benzo[d]imidazol-1-yl)phenyl)-2-oxoethyl)-1,3-diazaspiro[4.5]dec-1-en-4-one]
CCC1=NC2(CCC(F)(F)CC2)C(=O)N1CC(=O)c1ccc(Oc2cccnn2)cc1 [Example 3, 2-ethyl-8,8-difluoro-3-(2-oxo-2-(4-(pyridazin-3-yloxy)phenyl)ethyl)-1,3-diazaspiro[4.5]dec-1-en-4-one]
CC1=NC2(CCC(F)(F)CC2)C(=O)N1CC(=O)c1ccc(-n2c(C)nc3ccccc32)cc1 [Example 5, 8,8-difluoro-2-methyl-3-(2-(4-(2-methyl-1H-benzo[d]imidazol-1-yl)phenyl)-2-oxoethyl)-1,3-diazaspiro[4.5]dec-1-en-4-one]
CC1=NC2(CCC(F)(F)CC2)C(=O)N1CC(=O)c1ccc(-n2c(C)nc3cccnc32)cc1 [Example 6, 8,8-difluoro-2-methyl-3-(2-(4-(2-methyl-3H-imidazo[4,5-b]pyridin-3-yl)phenyl)-2-oxoethyl)-1,3-diazaspiro[4.5]dec-1-en-4-one]
